The text below walks through data of patent US9309222B2, “Phenyl linked quinolinyl modulators of RORγt” (Janssen Pharmaceutica NV, priority 2012, dated 2016).

Assay [1] concerns the target T1, human RORγt LBD (Homo sapiens, UniProt P51449).
T1 construct: expressed in transfected cells
T1 sequence (P51449 258-518): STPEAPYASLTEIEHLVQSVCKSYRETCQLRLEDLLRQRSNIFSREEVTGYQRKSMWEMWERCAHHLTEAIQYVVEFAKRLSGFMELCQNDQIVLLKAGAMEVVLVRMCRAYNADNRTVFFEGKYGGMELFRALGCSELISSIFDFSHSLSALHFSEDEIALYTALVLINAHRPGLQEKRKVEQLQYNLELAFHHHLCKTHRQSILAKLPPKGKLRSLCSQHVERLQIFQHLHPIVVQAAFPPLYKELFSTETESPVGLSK
Nature of the assay: RORγt reporter assay (GAL4-RORγt LBD luciferase in HEK293T cells). It is filed as cell-based. The following applies: for pIC50: HEK293T cells, 24 hours compound treatment; for inhibition at 6 µM: HEK-293T, read-out: RORγt reporter Assay, % inhibition @ 6 μM, HEK293T cells, 6 μM compound. An excerpt:
A reporter assay was used to test functional activity of RORγt modulatory compounds on transcriptional activation driven by the RORγt LBD. Cells used in the assay were co-transfected with two constructs. The first construct, pBIND-RORγt LBD, contained the wild type human RORγt LBD fused to the DNA binding domain of the GAL4 protein. The second construct, pGL4.31 (Promega Cat no. C935A), contained multiple GAL4 responsive DNA elements upstream of firefly luciferase. […] The mutant construct was called pBIND-RORγt-AF2.
The pBIND vector contains the GAL4 DNA Binding Domain (GAL4 DBD) and the renilla luciferase gene under control of the SV40 promoter. Renilla luciferase expression serves as a control for transfection efficiency and cell viability.
The reporter assay was performed by transiently transfecting HEK293T cells with 5 ng of pBIND-RORγt LBD or pBIND-RORγt LBD-AF2 and 5 μg pGL4.31 (Promega Cat no. C935A) using Fugene 6 (Invitrogen Cat no. E2691) at a 1:6 ratio of DNA:Fugene 6 in a T-75 flask in which cells were at least 80% confluent. Twenty four hours after bulk transfection, cells were plated into 96-well plates at 50,000 cells/well in phenol-red free DMEM containing 5% Lipid Reduced FCS and Pen/Strep. Six hours after plating, cells were treated with compounds for 24 hours. Media was removed and cells were lysed with 50 μL 1× Glo Lysis Buffer (Promega). Dual Glo Luciferase Reagent (50 μL/well) was then added and firefly luciferase luminescence was read on an Envision after a ten minute incubation. Finally, Stop and Glo reagent (50 μL/well) was added and renilla luciferase luminescence was read on an Envision after a ten minute incubation. To calculate the effect of compounds on RORγt activity, the ratio of firefly to renilla luciferase was determined and plotted against compound concentration. Agonist compounds increase RORγt-driven luciferase expression, and antagonist or inverse agonist compounds decrease luciferase expression.
Background: Reporter assays use an easily measured gene product as a stand-in for the process of interest.

The target of assay [2] is T2, human RORγt ligand binding domain (RORγt LBD) (Homo sapiens, UniProt P51449).
T2 construct: His-tag (N); TurboTEV protease cleavage site (ENLYFQG) (N); made in house; host or cells: E. coli (pHIS1, modified pET vector)
T2 sequence (P51449 with tags, fused parts or gaps): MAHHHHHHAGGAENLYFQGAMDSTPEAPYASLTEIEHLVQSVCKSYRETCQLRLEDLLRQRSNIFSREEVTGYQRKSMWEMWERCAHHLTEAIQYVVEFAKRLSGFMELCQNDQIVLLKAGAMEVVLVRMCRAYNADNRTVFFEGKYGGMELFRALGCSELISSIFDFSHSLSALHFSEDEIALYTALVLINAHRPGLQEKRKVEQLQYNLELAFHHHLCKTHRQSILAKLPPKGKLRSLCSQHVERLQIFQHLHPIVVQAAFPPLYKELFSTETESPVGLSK
Nature of the assay: RORγt ThermoFluor assay (thermal shift, ligand binding affinity). The following applies: estimated from concentration response of thermal shift. The procedure:
This approach is applicable to a wide variety of systems, and rigorous in theoretical interpretation through quantitation of equilibrium binding constants (KD).
The shift in the melting point described as a ΔTm is proportional to the concentration and affinity of the ligand.
RORγt ThermoFluor® Assay Construct
Protein and compound solutions are dispensed into black 384-well polypropylene PCR microplates (Abgene) and overlayed with silicone oil (1 μL Fluka, type DC 200) to prevent evaporation.
Fluorescence was measured by continuous illumination with UV light (Hamamatsu LC6) supplied via fiber optic and filtered through a band-pass filter (380-400 nm; >6 OD cutoff). Fluorescence emission of the entire 384-well plate was detected by measuring light intensity using a CCD camera (Sensys, Roper Scientific) filtered to detect 500±25 nm, resulting in simultaneous and independent readings of all 384 wells. Images were collected at each temperature, and the sum of the pixel intensity in a given area of the assay plate was recorded versus temperature. Reference wells contained RORγt without compounds, and the assay conditions were as follows: • 0.065 mg/mL RORγt • 60 μM 1,8-ANS • 100 mM Hepes, pH 7.0 • 10 mM NaCl • 2.5 mM GSH • 0.002% Tween-20
Project compounds were arranged in a pre-dosed mother plate (Greiner Bio-one) wherein compounds are serially diluted in 100% DMSO by 1:2 from a high concentration of 10 mM over 12 columns within a series (column 12 is a reference well containing DMSO, no compound).
The compounds were robotically dispensed directly into assay plates (1×=[…]) using a Hummingbird capillary liquid handling instrument (Digilab). Following compound dispense, protein and dye in buffer was added to achieve the final assay volume of 3 μL, followed by 1 μL of silicone oil.

pIC50, pKd: −log10 of the molar value. Structures can show the parent of a compound that is named as a salt. Where only a bound is given, the exact number is not on record here.

`COc1cccc(C(O)(c2cccnc2)c2ccc3ncc(-c4ccccc4)c(Cl)c3c2)c1` (stereo not drawn) [Example 58, (4-Chloro-3-phenylquinolin-6-yl)(3-methoxyphenyl)pyridin-3-ylmethanol]: in assay [1], the pIC50 (as a rule, the IC50 on a negative log10 scale, so that one unit is a factor of ten) was about 5.22 and the inhibition – broadly, the change of the read-out against control, counted positive when it falls – at 6 µM worked out at 40%. In assay [2], the negative-log Kd (pKd) (usually −log10 of the Kd, conventionally taken in molar units) was 5.66.
In the case of `COc1ccc(C(O)(c2cccnc2)c2ccc3ncc(-c4ccccc4)c(Cl)c3c2)cc1` (stereo not drawn) [Example 59, (4-Chloro-3-phenylquinolin-6-yl)(4-methoxyphenyl)pyridin-3-ylmethanol], in assay [1], the pIC50 was about 5.22 and the inhibition at 6 µM came to 37%. Further, in assay [2], the pKd was 5.36.
The corresponding values for `OC(c1ccc(Cl)nc1)(c1cccc(Cl)c1)c1ccc2ncc(-c3ccccc3)c(Cl)c2c1` (stereo not drawn) [Example 60, (3-Chlorophenyl)(4-chloro-3-phenylquinolin-6-yl)(6-chloropyridin-3-yl)methanol] are about 6.00, 86% and 5.89.
On the same counts, the results for `OC(c1ccc(Cl)nc1)(c1cccc(F)c1)c1ccc2ncc(-c3ccccc3)c(Cl)c2c1` (stereo not drawn) [Example 61, (4-Chloro-3-phenylquinolin-6-yl)(6-chloropyridin-3-yl)(3-fluorophenyl)methanol] are 5.70, 80% and 5.74.
Take `CN(C)CCN(C)c1nc2ccc(C(O)(c3ccncc3)c3cncn3C)cc2c(Cl)c1-c1ccccc1` (stereo not drawn) [Example 64, (4-Chloro-2-{[2-(dimethylamino)ethyl](methyl)amino}-3-phenylquinolin-6-yl)(1-methyl-1H-imidazol-5-yl)pyridin-4-ylmethanol•TFA]: in assay [1], the pIC50 was about 5.40 and the inhibition at 6 µM is 87%. Also, the pKd in assay [2] is 6.30.
Take `Cn1cncc1C(O)(c1ccncc1)c1ccc2nc(N3CCC(O)CC3)c(-c3ccccc3)c(Cl)c2c1` (stereo not drawn) [Example 72, 1-{4-Chloro-6-[hydroxy(1-methyl-1H-imidazol-5-yl)pyridin-4-ylmethyl]-3-phenylquinolin-2-yl}piperidin-4-ol•TFA]: in assay [1], the pIC50 was about 5.70 and the inhibition at 6 µM worked out at 83%. In addition, the negative logarithm of the Kd (pKd) in assay [2] was 5.07.
The corresponding values for `COC1CCN(c2nc3ccc(C(O)(c4ccncc4)c4cncn4C)cc3c(Cl)c2-c2ccccc2)CC1` (stereo not drawn) [Example 75, [4-Chloro-2-(4-methoxypiperidin-1-yl)-3-phenylquinolin-6-yl](1-methyl-1H-imidazol-5-yl)pyridin-4-ylmethanol•TFA] are about 5.70, 88% and 6.38.
For `Cn1cncc1C(O)(c1ccncc1)c1ccc2nc(N3CCN(c4ccccc4)CC3)c(-c3ccccc3)c(Cl)c2c1` (stereo not drawn) [Example 77, [4-Chloro-3-phenyl-2-(4-phenylpiperazin-1-yl)quinolin-6-yl](1-methyl-1H-imidazol-5-yl)pyridin-4-ylmethanol•TFA], in assay [1], the pIC50 was about 5.40 and the inhibition at 6 µM stood at 75%. For the same compound, in assay [2], the negative logarithm of the Kd (pKd) was 5.96.
In the case of `CCCCc1c(-c2ccccc2)c(Cl)nc2ccc(C(O)(c3ccncc3)c3cncn3C)cc12` (stereo not drawn) [Example 78, (4-Butyl-2-chloro-3-phenylquinolin-6-yl)(1-methyl-1H-imidazol-5-yl)pyridin-4-ylmethanol•TFA], in assay [1], the pIC50 is about 5.70 and the inhibition at 6 µM was found to be 92%. Moreover, the pKd in assay [2] is 6.57.
For `COc1nc2ccc(C(O)(c3cccnc3)c3cccc(Cl)c3)cc2c(OC)c1-c1ccccc1` (stereo not drawn) [Example 79, (3-Chlorophenyl)(2,4-dimethoxy-3-phenylquinolin-6-yl)pyridin-3-ylmethanol•TFA], in assay [1], the negative logarithm of the IC50 (pIC50) was 5.92 and the inhibition at 6 µM came out at 73%. For the same compound, the negative-log Kd (pKd) in assay [2] is 6.29.
In the case of `CCOc1nc2ccc(C(O)(c3cccnc3)c3cccc(Cl)c3)cc2c(Cl)c1-c1ccccc1` (stereo not drawn) [Example 81, (4-Chloro-2-ethoxy-3-phenylquinolin-6-yl)(3-chlorophenyl)pyridin-3-ylmethanol•TFA], in assay [1], the pIC50 is 6.49 and the inhibition at 6 µM is 93%. The pKd in assay [2] is 6.77.
On the same counts, the results for `CCOc1nc2ccc(C(O)(c3ccncc3)c3cncn3C)cc2c(OCC)c1-c1ccccc1` (stereo not drawn) [Example 82, (2,4-Diethoxy-3-phenylquinolin-6-yl)(1-methyl-1H-imidazol-5-yl)pyridin-4-ylmethanol•TFA] are about 5.40, 71% and 6.25.
Turning to `CCCCc1c(-c2ccccc2)cnc2ccc(C(O)(c3ccncc3)c3cncn3C)cc12` (stereo not drawn) [Example 83, (4-Butyl-3-phenylquinolin-6-yl)(1-methyl-1H-imidazol-5-yl)pyridin-4-ylmethanol•TFA], in assay [1], the pIC50 was under 5.22 and the inhibition at 6 µM was -3%. Further, in assay [2], the pKd is 5.38.
On the same counts, the results for `CC(C)Oc1c(-c2ccccc2)c(Cl)nc2ccc(C(O)(c3ccncc3)c3cncn3C)cc12` (stereo not drawn) [Example 85, [2-Chloro-4-(1-methylethoxy)-3-phenylquinolin-6-yl](1-methyl-1H-imidazol-5-yl)pyridin-4-ylmethanol•TFA] are 6.19, 92% and 6.89.
The corresponding values for `CC(C)(C)OC(=O)N1CCC(C(O)(c2cccnc2)c2ccc3nc(Cl)c(-c4ccccc4)c(Cl)c3c2)CC1` (stereo not drawn) [Example 91, tert-Butyl 4-[(2,4-dichloro-3-phenylquinolin-6-yl)(hydroxy)pyridin-3-ylmethyl]piperidine-1-carboxylate] are 6.70, 97% and 6.66.
In the case of `OC(c1cccnc1)(c1ccc2nc(Cl)c(-c3ccccc3)c(Cl)c2c1)C1CCCNC1` (stereo not drawn) [Example 93, (2,4-Dichloro-3-phenylquinolin-6-yl)(piperidin-3-yl)pyridin-3-ylmethanol•TFA], in assay [1], the pIC50 was under 5.22 and the inhibition at 6 µM is 49%. In addition, the pKd in assay [2] was 5.92.
On the same counts, the results for `CN1CCCC(C(O)(c2cccnc2)c2ccc3nc(Cl)c(-c4ccccc4)c(Cl)c3c2)C1` (stereo not drawn) [Example 94, (2,4-Dichloro-3-phenylquinolin-6-yl)(1-methylpiperidin-3-yl)pyridin-3-ylmethanol•TFA] are under 5.22, 43% and 5.62.
On the same counts, the results for `CCc1nc2ccc(C(O)(c3ccncc3)c3cncn3C)cc2c(CC)c1-c1ccccc1` (stereo not drawn) [Example 97, (2,4-Diethyl-3-phenylquinolin-6-yl)(1-methyl-1H-imidazol-5-yl)pyridin-4-ylmethanol•TFA] are 6.24, 100% and 7.28.
